Experimental data as given in ChEMBL document CHEMBL1156829 (Proc Natl Acad Sci U S A, 2008).

Legend:
Plasmodium falciparum [1] = experiment: NOVARTIS: Inhibition of Plasmodium falciparum W2 (drug-resistant) proliferation in erythrocyte-based infection assay; assay type: functional, organism-based; settings: Plasmodium falciparum, W2; read-out: EC50
Plasmodium falciparum [2] = experiment: NOVARTIS: Inhibition of Plasmodium falciparum 3D7 (drug-susceptible) proliferation in erythrocyte-based infection assay; assay type: functional, organism-based; settings: Plasmodium falciparum, 3D7
[3] = NOVARTIS: Cytotoxicity against human hepatocellular carcinoma cell line (Huh7); assay type: toxicity, cell-based, Huh-7; settings: Huh7 cells (hepatocellular carcinoma cell line)

Structure (SMILES) | EC50 (Plasmodium falciparum [1]) [µM] | EC50 (Plasmodium falciparum [2]) [µM] | CC50 [3] [µM]
O=C(C[n+]1ccccc1)NN=Cc1ccc(Cl)c(Cl)c1 | 3.38 | 2.85 | > 100
Nc1nc(N)c2cc(S(=O)(=O)c3ccc4ccccc4c3)ccc2n1 | 1.71 | 0.0973 | 49.5
Oc1cccc2ccc(Nc3ccccn3)nc12 | 0.302 | 0.679 | 8.87
COc1cccc2c1C(=O)C1C(O)=C3C(=C(O)C1C2=O)CC(O)(C(C)=NN=C1CC(C)(C)N(O)C(C)(C)C1)CC3OC1CC(C)(N)C(O)CO1 (configuration not stated) | 0.337 | 0.416 | > 10
CCOC(=O)c1c(NC(C)=O)sc2c1CCN(C(C)C)C2 | 3.41 | 1.56 | > 100
N=C1NC(=O)/C(=C/C=C/c2ccc([N+](=O)[O-])o2)S1 | 0.592 | 1.08 | 17.1
CCCCCCn1c2c(c(=N)c3c1CCC3)CCCC2 | 0.336 | 0.364 | > 10
NS(=O)(=O)c1ccc(CCNC(=O)C=Cc2ccc3c(c2)OCO3)cc1 | 3.39 | > 7.76 | > 100
CC(=O)N1c2ccccc2C(C)(c2ccc(Br)cc2)CC1(C)C (configuration not stated) | 2.42 | 4.27 | 71.4
O=C(CSc1ccc2nnc(-c3cccs3)n2n1)Nc1ccccc1 | > 3.47 | 1.4 | > 100
CC(C)C1=Nc2cc(C(N)=O)ccc2CN1C1CC1 | > 0.338 | 0.0308 | > 10
Cc1cc(Nc2ccc(C(=O)n3ccnc3)cc2)n2ncnc2n1 | > 0.347 | > 1.25 | > 10
O=C(NCCCCNc1ccnc2cc(Cl)ccc12)c1ccc(Br)cc1 | 0.291 | 0.218 | > 8.73
COc1ccc(OC)c(-c2ccc(C(=O)N3CCN(C/C=C/c4ccccc4)CC3)c(N(C)C)n2)c1 | 0.333 | 0.922 | > 10
COc1ccccc1N1CCN(C2CCN(C3CCC(c4ccccc4)CC3)CC2)CC1 (configuration not stated) | 0.67 | 0.293 | 20.2
CC(C)NC(=O)[C@@H]1C[C@@H](NCc2cccnc2)CN1Cc1ccc2ccccc2c1 | 3.31 | > 10.9 | > 100
O=C(Nc1ccc(Cl)c(Cl)c1)Nc1cc(C(=O)NCCCN2CCCCCC2)ccc1Cl | 1.42 | 0.791 | > 43
C=C1C=CN(Cc2ccccc2)c2ccc(OC)cc21 | 0.33 | 0.451 | > 10
Cc1ccc(-n2c(SCc3cccc4ccccc34)nc3sc4c(c3c2=O)CCN(C)C4)cc1 | 3.3 | > 6.52 | > 100
CC(C)(C)c1ccc(C(=O)Nc2ccc(NC(=O)c3ccc(-c4ccc([N+](=O)[O-])cc4)o3)cc2)cc1 | 3.3 | 1.21 | > 100
COc1ccc(NC(=O)CCn2c(=S)oc3ccccc32)c([N+](=O)[O-])c1 | > 0.346 | > 1.25 | > 10
CCCCC(=O)N(CCCC(C)Nc1cc(OC)cc2cccnc12)Cc1ccccc1OC (configuration not stated) | 0.035 | 0.348 | 1.06
CCCCCCCCNC(=O)C1CC1c1ccccc1 (configuration not stated) | 3.49 | > 10.5 | > 100

Structure (SMILES) | EC50 (Plasmodium falciparum [1]) [µM] | EC50 (Plasmodium falciparum [2]) [µM] | CC50 [3] [µM]
CCC(Oc1ccc(C(C)(C)CC)cc1C(C)(C)CC)C(=O)Nc1ccc(Cl)c([N+](=O)[O-])c1 (configuration not stated) | 0.349 | 0.275 | > 10
COc1cc(C(=O)NC(c2ccccc2Cl)c2cc(Cl)c3cccnc3c2O)cc(OC)c1OC (configuration not stated) | 3.47 | 6.15 | > 100
CCOC(=O)c1c(NC(=O)c2ccc(S(=O)(=O)N(C)c3ccccc3)cc2)sc2c1CCN(C(=O)OCC)C2 | > 3.29 | > 10.6 | > 100
c1ccc2nc3c(nnc4ccccc43)nc2c1 | 0.996 | 1.1 | 28.5
O=C(Nc1ccc(Oc2ccccc2)cc1)NC(CN1CCCC1)c1ccccc1 (configuration not stated) | 0.476 | 0.355 | 13.6
COc1cccc(CNc2ncnc3sc(C(=O)NCC4COCCO4)c(C)c23)c1OC (configuration not stated) | 3.5 | > 12.5 | > 100
Cc1ccccc1NC(=S)NC(Cc1ccccc1)c1ccccc1 (configuration not stated) | 0.34 | 0.374 | > 10
Cc1ccccc1Nc1nc(NCc2ccco2)c2ccccc2n1 | 0.529 | 0.548 | 15.6
Clc1cccc(CSc2nc(Nc3ccc4c(c3)OCO4)c3ccccc3n2)c1 | 2.79 | 1.17 | > 82.9
COc1ccc(C(C)=NNc2nnc(C)c(O)n2)cc1 | 0.258 | 0.188 | 7.68
O=C(Cc1ccccc1)NCCCCNc1ccnc2cc(Cl)ccc12 | 0.316 | 0.33 | > 9.6
COCCN(C(C)C(=O)NC(CN1CCCC1)c1ccccc1)S(=O)(=O)c1c(C)noc1C (configuration not stated) | 0.406 | 0.964 | > 11.9
COc1ccc(NC(=O)C2=C(C)NC(=S)NC2c2ccc(O)cc2)cc1 (configuration not stated) | 0.342 | 1.42 | > 10
Cc1cccc(NC(=O)c2ccc(NCCCC3CCCCCC3)c([N+](=O)[O-])c2)c1 | 0.643 | 0.441 | 18.8
Clc1ccccc1C[n+]1cc(-c2ccccc2)n2c1CCC2 | 3.47 | 2.33 | > 100
COc1ccc2[nH]c3c(NCCN4CCCCC4)ncnc3c2c1 | 0.976 | 0.785 | 28.6
N#Cc1cc(N2CC3CC(C2)c2cccc(=O)n2C3)c([N+](=O)[O-])cc1C#N (configuration not stated) | 3.36 | > 12.5 | > 100
CCCCCCCn1c2c(c(=N)c3c1CCC3)CCCC2 | 0.0914 | 0.0693 | 2.73
Cc1nc(-c2nc3c(s2)CN(C(=O)CCc2cccnc2)CC3)cs1 | 0.335 | 1.09 | > 10
CCOc1ccc(C2N(C)c3ccccc3N2C)cc1 | 0.344 | 0.249 | > 10
N#Cc1cc2[nH]c3ccccc3c2n(-c2ccc([N+](=O)[O-])cc2)c1=N | 3.44 | 0.53 | > 100
CCCCc1ccc(Nc2ncnc3sc4c(c23)CCCC4)cc1 | 3.39 | 11.4 | > 100
COc1cccc2c1C(=O)c1c(O)c3c(c(O)c1C2=O)CC(O)(C(=O)CO)CC3OC1CC(N)C(O)C(C)O1 (configuration not stated) | 0.18 | 0.169 | 5.25

Structure (SMILES) | EC50 (Plasmodium falciparum [1]) [µM] | EC50 (Plasmodium falciparum [2]) [µM] | CC50 [3] [µM]
Cc1ccc(NC(=O)CSc2nc3cc(C(=O)NCCCOC(C)C)ccc3c(=O)n2Cc2ccco2)cc1Cl | 0.34 | 1.94 | > 10
CCCCCCN(C(=O)c1ccc(C(C)(C)C)cc1)C(CC)c1nc2ccccc2c(=O)n1-c1ccccc1OC (configuration not stated) | 0.348 | 0.356 | > 10
CCN1CC=C(c2c[nH]c3ccccc23)CC1 | 0.339 | 0.885 | > 10
COCC(=O)N(C)CCCNc1ccnc2cc(Cl)ccc12 | 0.346 | 0.156 | > 10
CCC1CCCCN1C(=O)c1cc(-c2ccccc2OC)on1 (configuration not stated) | 0.34 | > 0.598 | > 10
CC(=NNC(=S)N(C)C)c1ccccn1 | 0.338 | 0.311 | > 10
COc1ccc(-c2ncc([C@@H]3C[C@H]4CN(c5ccccc5)C(=O)[C@]45CCCN35)cn2)cc1 | 0.995 | 2.26 | 29.8
Cc1cccn2c(=O)c3cc(C(=O)NC4CCCC4)c(=N)n(CCc4ccccc4)c3nc12 | 3.29 | 2.2 | > 100
COc1ccc(NC(=O)c2cc3cc(C4(O)CCN(CC5CC=CCC5)CC4)ccc3o2)cc1 (configuration not stated) | 0.824 | 0.381 | 25.1
O=C(NNc1cccc(F)n1)C(F)(F)F | 0.34 | 0.67 | > 10
CC(=C(Cl)Cl)C(Br)=C(Br)CO | 1.69 | 0.119 | 50.9
O=C(CCl)NCCNc1ncc(C(F)(F)F)cc1Cl | 0.612 | 0.453 | 17.8
CCN1C(C(=O)c2ccccc2)=C(Nc2c(C)n(C)n(-c3ccccc3)c2=O)c2ccccc2S1(=O)=O | 3.31 | > 12.5 | > 100
O=C(Nc1ccc(F)cc1)N1CCN(c2ccc3nnc(-c4ccccc4)n3n2)CC1 | 3.29 | > 12.5 | > 100
COC(=O)c1sccc1S(=O)(=O)N1CCCC(c2[nH]ncc2-c2ccccc2)C1 (configuration not stated) | 3.44 | 3.03 | > 100
CCC(C)(O)C(=O)O[C@H]1C(=O)OC2CC3C(C)=C[C@H](O)[C@@H](O)[C@]3(C)C3C24CO[C@]3(O)[C@H](O)[C@H](C)C14 (some centres not stated) | 0.215 | 0.227 | > 6.25
COc1ccc(C2=C(c3ccc(OC)cc3)C3(c4ccccc4)C(=O)C2(c2ccccc2)C2C(=O)N(c4ccc(F)cc4)C(=O)C23)cc1 (configuration not stated) | 3.35 | 2.24 | > 100
CCOC(=O)c1c(CNc2ccncc2)n(C)c2cc(Br)c(O)cc12 | 0.333 | 0.315 | > 10
O=C1N=C(N2CCOCC2)S/C1=C/c1cccc2ccccc12 | 0.329 | > 1.25 | > 10
CCC(C)NC(=O)CN(c1cc(OC)ccc1OC)S(C)(=O)=O (configuration not stated) | 0.349 | 0.438 | > 10
Cc1ccc(NC(=O)N2CCN(C(=O)c3nc(-c4ccccc4)nc(C)c3C(=O)OC(C)C)CC2C)c(C)c1 (configuration not stated) | 0.336 | > 0.271 | > 10
Cc1cccc2cc(CNC34CC5CC(CC(C5)C3)C4)c(N3CCC(N4CCC(O)CC4)CC3)nc12 | 0.163 | 0.793 | 4.9
O=C(Nc1ccc(NC(=O)c2ccco2)cc1Cl)c1ccccc1 | > 0.348 | > 1.65 | > 10
